Several values for one entry are separate records, joined by “and”; a condition that tells them apart may be missing. Equal values may be shown once.
Columns and labels:
[1] = tested on: IL-1α expressed on the skin; experiment: IL-1α on skin surface after Hill Top chamber exposure to SLS solutions, Sebutape collection, ELISA; format: in vivo, human
Experimental: Endogen, Inc. Interleukin-1α ELISA
(§1) 1. Baseline (corresponding to an untreated control) levels of PGE2 contained in secretions present on the skin surface were measured along the lower volar forearms of test panelists by placing a mild adhesive-coated microporous plastic film, Sebutape® (Cuderm Corporation, Dallas, Tex.), on the skin with the adhesive side down, making direct contact with the skin. The Sebutape® was removed from the skin after 1 minute and then placed in a vial containing 500 μL saline. This Sebutape® collection process was repeated three more times with a 1-minute contact time for each Sebutape®. The collected samples were stored at −70 ° C. until analysis (described below).
(§2) 2. Hill Top chambers® (Hill Top Research, Cincinnati, Ohio) containing 400 μL of the test fluid (deionized or tap water) were applied to the lower volar forearms of the test panelists. After 4 hours of exposure, the Hill Top chambers® were removed and the test sites were rinsed with tap water and patted dry.
(§3) 3. Twenty four hours after the Hill Top chambers® were removed and the arm was rinsed and patted dry, skin secretions containing PGE2 expressed on the skin surface were collected using the Sebutape absorption method described previously in Step #1 above.
The level of irritation caused by dilute solutions of SLS as a function of SLS concentration was assessed using the method described in Example 1, with the exception that the level of Interleukin-1α(IL-1α) was used to assess the degree of irritation, rather than PGE2. The levels of IL-1α were measured via immunoassay (Human IL-1αKit #EH2-IL1a, Endogen, Inc., Woburn. Mass.). As with PGE2, the measured levels of IL-1α(in pg/mL) were normalized against the total amount of protein (in μg/mL) extracted from each Sebutape® strip. To account for person-to-person variability, IL-1α levels for each treatment site were further normalized using the baseline levels of IL-1α measured for the untreated control.

[2] = tested on: PGE2 expressed on the skin surface; experiment: PGE2 on skin surface 24 h after 4 h Hill Top chamber exposure, Sebutape collection, immunoassay; format: in vivo, human; settings: for Normalized levels of PGE2, Average: average of 10 panelists; for Normalized levels of PGE2: individual panelists 1-10
Experimental: Assay Designs, Inc. PGE2 Enzyme Immunoassay:
as §1, §2, §3
The collected Sebutape® samples were analyzed using the following methods. After thawing, the samples were sonicated for 15 minutes and vortexed vigorously. The solutions, containing extracted proteins and eicosanoids, were analyzed for levels of PGE2 via immunoassay (Assay Designs High Sensitivity PGE2 Enzyme Immunoassay #93001) and levels of total protein using the bicinchoninic acid (BCA) protein assay (Kit #23225, Pierce Chemical Company, Rockford, Ill.).
Four Sebutape® samples were taken from each test site. The measured levels of PGE2 (in pg/mL) were normalized against the total amount of protein (in μg/mL) extracted from each Sebutape® strip. The four normalized values were then averaged to determine the levels of PGE2 (in pg/μg) expressed for each test site. To account for person-to-person variability, PGE2 levels, for each panelist were further normalized relative to the levels of PGE2 measured for the untreated control.
The method of Example 1 was extended to measure the level of inflammation or irritation elicited by a dilute solution (8% w/w in deionized water) of a mild facial cleanser (Neutrogena Fresh Foaming Cleanser, Neutrogena Corporation, Los Angeles, California) compared to that of deionized water.

Normalized levels of PGE2, Average ([2]; Example 3, cleanser as 8% w/w in deionized water) [dimensionless units]	Normalized levels of PGE2, Average ([2]; 4 h chamber on volar forearm, collected 24 h later) [dimensionless units]	SMILES	Levels of IL-1α ([1]; 5 w/w % SLS in deionized water) [dimensionless units]	Levels of IL-1α ([1]; 10 w/w % SLS in deionized water) [dimensionless units]	Levels of IL-1α ([1]; 20 w/w % SLS in deionized water) [dimensionless units]	Normalized levels of PGE2 ([2]; Example 3, cleanser as 8% w/w in deionized water, 4 h chamber)	Normalized levels of PGE2 ([2]; 400 μL fluid, 4 h chamber on volar forearm, collected 24 h later, normalized to protein and untreated control)
		CCCCCCCCCCCCOS(=O)(=O)[O-].[Na+] [SLS, sodium lauryl sulfate]	2.83	2.71	1.00		
1.53	0.86	O [Deionized Water]				1.49 dimensionless units and 2.12 dimensionless units and 1.25 dimensionless units and 1.60 dimensionless units and 1.77 dimensionless units and 1.45 dimensionless units and 1.98 dimensionless units and 1.48 dimensionless units and 1.30 dimensionless units and 0.83 dimensionless units	0.92 dimensionless units and 0.84 dimensionless units and 0.93 dimensionless units and 1.71 dimensionless units and 1.01 dimensionless units and 0.94 dimensionless units and 0.40 dimensionless units and 0.56 dimensionless units and 0.62 dimensionless units and 0.69 dimensionless units
